According to patent publication US11357246B2, “High intensity sweeteners” (Firmenich Incorporated, priority 2015, dated 2022):

Each compound was assayed against T1, hT1R2/hT1R3 (Homo sapiens, UniProt Q7RTX0+Q8TE23) (assay: HTS-Sweet: FLIPR calcium fluorometric imaging assay in cells stably expressing the human sweet taste receptor and a promiscuous G protein). Conditions: not given.
T1 construct: expressed in transfected cells; parental cells lack the receptor
T1 sequence (Q8TE23 20-839): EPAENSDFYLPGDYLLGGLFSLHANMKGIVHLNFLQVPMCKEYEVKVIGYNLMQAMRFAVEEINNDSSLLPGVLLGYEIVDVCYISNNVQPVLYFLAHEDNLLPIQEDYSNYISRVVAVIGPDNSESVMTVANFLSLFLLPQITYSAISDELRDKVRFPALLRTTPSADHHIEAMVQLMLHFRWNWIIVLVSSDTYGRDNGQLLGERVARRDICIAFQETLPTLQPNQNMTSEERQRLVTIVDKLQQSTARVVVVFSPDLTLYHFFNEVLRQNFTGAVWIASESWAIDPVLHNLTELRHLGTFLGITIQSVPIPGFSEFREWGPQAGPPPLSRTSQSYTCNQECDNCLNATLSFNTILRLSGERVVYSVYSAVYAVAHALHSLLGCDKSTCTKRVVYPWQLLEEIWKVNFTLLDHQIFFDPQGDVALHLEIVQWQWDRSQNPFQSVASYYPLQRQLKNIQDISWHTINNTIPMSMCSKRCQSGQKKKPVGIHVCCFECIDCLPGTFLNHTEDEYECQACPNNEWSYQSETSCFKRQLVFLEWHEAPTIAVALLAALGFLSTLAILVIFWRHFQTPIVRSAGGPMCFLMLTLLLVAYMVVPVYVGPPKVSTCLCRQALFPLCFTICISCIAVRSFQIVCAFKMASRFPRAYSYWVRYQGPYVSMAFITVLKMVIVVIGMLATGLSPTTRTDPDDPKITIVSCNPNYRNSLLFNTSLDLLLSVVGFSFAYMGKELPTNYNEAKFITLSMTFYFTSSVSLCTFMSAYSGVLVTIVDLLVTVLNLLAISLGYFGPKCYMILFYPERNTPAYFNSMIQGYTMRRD
T1 sequence (Q7RTX0 21-852): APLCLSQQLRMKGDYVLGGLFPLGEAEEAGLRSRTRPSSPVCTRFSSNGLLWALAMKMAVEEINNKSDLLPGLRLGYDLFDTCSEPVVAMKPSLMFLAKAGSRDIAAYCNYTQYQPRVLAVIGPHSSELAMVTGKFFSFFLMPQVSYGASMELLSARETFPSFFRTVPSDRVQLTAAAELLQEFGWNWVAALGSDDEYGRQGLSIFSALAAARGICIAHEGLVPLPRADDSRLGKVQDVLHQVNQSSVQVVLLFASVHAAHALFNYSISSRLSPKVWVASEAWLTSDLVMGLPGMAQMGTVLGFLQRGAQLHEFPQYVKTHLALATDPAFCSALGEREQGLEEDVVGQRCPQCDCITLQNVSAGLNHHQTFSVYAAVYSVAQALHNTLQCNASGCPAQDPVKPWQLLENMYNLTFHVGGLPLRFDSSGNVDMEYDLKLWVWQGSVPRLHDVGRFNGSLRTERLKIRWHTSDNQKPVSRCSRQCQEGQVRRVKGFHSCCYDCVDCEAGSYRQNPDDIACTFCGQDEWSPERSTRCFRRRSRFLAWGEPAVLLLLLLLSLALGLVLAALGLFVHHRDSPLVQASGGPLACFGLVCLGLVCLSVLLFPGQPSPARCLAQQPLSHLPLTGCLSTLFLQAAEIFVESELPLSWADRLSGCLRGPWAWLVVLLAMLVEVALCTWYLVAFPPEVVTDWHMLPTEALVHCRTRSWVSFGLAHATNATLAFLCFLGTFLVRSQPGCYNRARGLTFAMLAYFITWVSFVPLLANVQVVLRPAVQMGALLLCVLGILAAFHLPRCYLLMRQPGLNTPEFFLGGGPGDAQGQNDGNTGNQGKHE
Type: cell-based
Method: Compound activity (EC50) was determined using an automated fluorometric imaging assay on a FLIPR instrument (Fluorometric […] Plate Reader, Molecular Devices, Sunnyvale, Calif.). Cell stably expressing the human sweet taste receptor and a promiscuous G protein were seeded into 384-well plates (at approximately 40,000 cells per well). Cells were grown for 24 hours at 37° C. Cells were then loaded with the calcium dye Fluo-4AM (Molecular Probes, Eugene, Oreg.), 4 μM in a phosphate buffered saline (D-PBS) (Invitrogen, Carlsbad, Calif.), for 1 hour at room temperature. After replacement with 25 μl D-PBS, stimulation was performed in the FLIPR instrument and at room temperature by the addition of 25 μl D-PBS supplemented with different stimuli at concentrations corresponding to twice the desired final level. Receptor activity was quantified by determining the maximal fluorescence increases (using a 480 nm excitation and 535 nm emission) after normalization to basal fluorescence intensity measured before stimulation.
For dose-responses analysis, stimuli were presented in duplicates at 10 different concentrations ranging from 0.4 μM to 200 μM. EC50 s were determined using a non-linear regression algorithm, where the Hill slope, bottom asymptotes and top asymptotes were allowed to vary.
For `C[C@H](CC[C@@H](O[C@@H]1O[C@H](CO[C@H]2O[C@H](CO)[C@@H](O)[C@H](O)[C@H]2O)[C@@H](O)[C@H](O)[C@H]1O[C@@H]1O[C@H](CO)[C@@H](O)[C@H](O)[C@H]1O)C(C)(C)O)C1CC[C@@]2(C)C3CC=C4C(CC[C@H](O[C@@H]5O[C@H](CO)[C@@H](O)[C@H](O)[C@H]5O)C4(C)C)[C@]3(C)[C@H](O)C[C@]12C` (stereo partly drawn) [Compound 3], the EC50 was under 17 µM. `C[C@H](CC[C@@H](O[C@@H]1O[C@H](CO[C@H]2O[C@H](CO)[C@@H](O)[C@H](O)[C@H]2O)[C@@H](O)[C@H](O)[C@H]1O[C@@H]1O[C@H](CO)[C@@H](O)[C@H](O)[C@H]1O)C(C)(C)O)C1CC[C@@]2(C)C3CC=C4C(CC[C@H](O[C@@H]5O[C@H](CO[C@H]6O[C@H](CO)[C@@H](O)[C@H](O)[C@H]6O)[C@@H](O)[C@H](O)[C@H]5O)C4(C)C)[C@]3(C)[C@H](O)C[C@]12C` (stereo partly drawn) [Compound 4] was tested, and the EC50 was under 17 µM. `CC(CCC(OC1OC(COC2OC(CO)C(O)C(O)C2O)C(O)C(O)C1OC1OC(CO)C(O)C(O)C1O)C(C)(C)O)C1CCC2(C)C3CC=C4C(CCC(OC5OC(COC6OC(CO)C(O)C(O)C6O)C(O)C(O)C5O)C4(C)C)C3(C)C(O)CC12C` (stereo not drawn) [Compound 12] showed an EC50 of 17 to 30 µM. Work on `C[C@H](CC[C@@H](O[C@@H]1O[C@H](CO[C@H]2O[C@H](CO)[C@@H](O)[C@H](O)[C@H]2O)[C@@H](O)[C@H](O)[C@H]1O[C@@H]1O[C@H](CO)[C@@H](O)[C@H](O)[C@H]1O)C(C)(C)O)C1CC[C@@]2(C)C3CC=C4C(CC[C@H](O[C@@H]5O[C@H](CO[C@@H]6O[C@H](CO)[C@@H](O)[C@H](O)[C@H]6O)[C@@H](O)[C@H](O)[C@H]5O)C4(C)C)[C@]3(C)[C@H](O)C[C@]12C` (stereo partly drawn) [Compound 23] yielded an EC50 of under 17 µM.

Same assay, conditions: FLIPR, Fluo-4AM, 10 concentrations 0.4 μM to 200 μM in duplicates; read-out: Compound EC50s for hT1R2/hT1R3
Compound `C[C@H](CC[C@@H](O[C@@H]1O[C@H](CO[C@@H]2O[C@H](CO)[C@@H](O)[C@H](O)[C@H]2O)[C@@H](O)[C@H](O)[C@H]1O[C@@H]1O[C@H](CO)[C@@H](O)[C@H](O)[C@H]1O)C(C)(C)O)C1CC[C@@]2(C)C3CC=C4C(CC[C@H](O[C@@H]5O[C@H](CO[C@H]6O[C@H](CO[C@H]7O[C@@H](CO)[C@H](O)[C@@H](O)[C@@H]7O)[C@@H](O)[C@H](O)[C@H]6O)[C@@H](O)[C@H](O)[C@H]5O)C4(C)C)[C@]3(C)[C@H](O)C[C@]12C` (stereo partly drawn) [Compound 2] has an EC50 of 17 to 30 µM. Work on `C[C@H](CC[C@@H](O[C@@H]1O[C@H](CO[C@H]2O[C@H](CO)[C@@H](O)[C@H](O)[C@H]2O)[C@@H](O)[C@H](O)[C@H]1O[C@@H]1O[C@H](CO)[C@@H](O)[C@H](O)[C@H]1O)C(C)(C)O)C1CC[C@@]2(C)C3CC=C4C(CC[C@H](O[C@@H]5O[C@H](CO)[C@@H](O[C@H]6O[C@H](CO)[C@@H](O)[C@H](O)[C@H]6O)[C@H](O)[C@H]5O)C4(C)C)[C@]3(C)[C@H](O)C[C@]12C` (stereo partly drawn) [Compound 5] yielded an EC50 of 17 to 30 µM. With `C[C@H](CC[C@@H](O[C@@H]1O[C@H](CO)[C@@H](O)[C@H](O)[C@H]1O[C@@H]1O[C@H](CO)[C@@H](O[C@H]2O[C@H](CO)[C@@H](O)[C@H](O)[C@H]2O)[C@H](O)[C@H]1O)C(C)(C)O)C1CC[C@@]2(C)C3CC=C4C(CC[C@H](O[C@@H]5O[C@H](CO)[C@@H](O)[C@H](O)[C@H]5O)C4(C)C)[C@]3(C)[C@H](O)C[C@]12C` (stereo partly drawn) [Compound 9] the EC50 was 17 to 30 µM. Work on `C[C@H](CC[C@@H](O[C@@H]1O[C@H](CO[C@H]2O[C@H](CO)[C@@H](O)[C@H](O)[C@H]2O)[C@@H](O)[C@H](O)[C@H]1O[C@@H]1O[C@H](CO)[C@@H](O)[C@H](O)[C@H]1O)C(C)(C)O)C1CC[C@@]2(C)C3CC=C4C(CC[C@H](O[C@@H]5O[C@H](CO)[C@@H](O)[C@H](O)[C@H]5O)C4(C)C)[C@]3(C)C(=O)C[C@]12C` (stereo partly drawn) [Compound 11] yielded an EC50 of over 30 µM. `C[C@H](CC[C@@H](O[C@@H]1O[C@H](CO)[C@@H](O)[C@H](O)[C@H]1O[C@@H]1O[C@H](CO)[C@@H](O[C@@H]2O[C@H](CO)[C@@H](O)[C@H](O)[C@H]2O)[C@H](O)[C@H]1O)C(C)(C)O)C1CC[C@@]2(C)C3CC=C4C(CC[C@H](O[C@@H]5O[C@H](CO)[C@@H](O)[C@H](O)[C@H]5O)C4(C)C)[C@]3(C)[C@H](O)C[C@]12C` (stereo partly drawn) [Compound 13] gave an EC50 of 17 to 30 µM. `C[C@H](CC[C@@H](O[C@@H]1O[C@H](CO[C@H]2O[C@H](CO)[C@@H](O)[C@H](O)[C@H]2O)[C@@H](O)[C@H](O)[C@H]1O[C@@H]1O[C@H](CO)[C@@H](O[C@H]2O[C@H](CO)[C@@H](O)[C@H](O)[C@H]2O)[C@H](O)[C@H]1O)C(C)(C)O)C1CC[C@@]2(C)C3CC=C4C(CC[C@H](O)C4(C)C)[C@]3(C)[C@H](O)C[C@]12C` (stereo partly drawn) [Compound 16] gave an EC50 of 17 to 30 µM. `C[C@H](CC[C@@H](O[C@@H]1O[C@H](CO[C@@H]2O[C@H](CO)[C@@H](O)[C@H](O)[C@H]2O)[C@@H](O[C@@H]2O[C@H](CO)[C@@H](O)[C@H](O)[C@H]2O)[C@H](O)[C@H]1O)C(C)(C)O)C1CC[C@@]2(C)C3CC=C4C(CC[C@H](O[C@@H]5C[C@H](COC6O[C@H](CO)[C@@H](O)[C@H](O)[C@H]6O)[C@@H](O)[C@H](O)[C@H]5O)C4(C)C)[C@]3(C)C(=O)C[C@]12C` (stereo partly drawn) [Compound 29] gave an EC50 of over 30 µM. Compound `C[C@H](CC[C@@H](O[C@@H]1O[C@H](CO[C@@H]2O[C@H](CO[C@@H]3O[C@H](CO)[C@@H](O)[C@H](O)[C@H]3O)[C@@H](O)[C@H](O)[C@H]2O)[C@@H](O)[C@H](O)[C@H]1O[C@@H]1O[C@H](CO)[C@@H](O)[C@H](O)[C@H]1O)C(C)(C)O)C1CC[C@@]2(C)C3CC=C4C(CC[C@H](O[C@@H]5O[C@H](COC6O[C@H](CO)[C@@H](O)[C@H](O)[C@H]6O)[C@@H](O)[C@H](O)[C@H]5O)C4(C)C)[C@]3(C)[C@H](O)C[C@]12C` (stereo partly drawn) [Compound 30] has an EC50 of over 30 µM. With `C[C@H](CC[C@@H](O[C@@H]1O[C@H](CO[C@@H]2O[C@H](CO)[C@@H](O)[C@H](O)[C@H]2O)[C@@H](O)[C@H](O)[C@H]1O[C@@H]1O[C@H](CO)[C@@H](O)[C@H](O)[C@H]1O)C(C)(C)O)C1CC[C@@]2(C)C3CC=C4C(CC[C@H](O[C@@H]5O[C@H](CO[C@@H]6O[C@H](CO)[C@@H](O)[C@H](O)[C@H]6O)[C@@H](O)[C@H](O)[C@H]5O)C4(C)C)[C@]3(C)C=C[C@]12C` (stereo partly drawn) [Compound 31] the EC50 was over 30 µM. For `C[C@H](CC[C@@H](O[C@@H]1O[C@H](CO)[C@@H](O)[C@H](O)[C@H]1O[C@@H]1O[C@H](CO)[C@@H](O)[C@H](O)[C@H]1O)C(C)(C)O)C1CC[C@@]2(C)C3CC=C4C(CC[C@H](O[C@@H]5O[C@H](CO[C@@H]6O[C@H](CO)[C@@H](O)[C@H](O)[C@H]6O)[C@@H](O)[C@H](O)[C@H]5O[C@H]5O[C@@H](CO)[C@H](O)[C@@H](O)[C@@H]5O)C4(C)C)[C@]3(C)[C@H](O)C[C@]12C` (stereo partly drawn) [Compound 32], the EC50 was over 30 µM. In the case of `C[C@H](CC[C@@H](O[C@@H]1O[C@H](CO)[C@@H](O)[C@H](O)[C@H]1O[C@@H]1O[C@H](CO)[C@@H](O)[C@H](O)[C@H]1O)C(C)(C)O)C1CC[C@@]2(C)C3CC=C4C(CC[C@H](O[C@@H]5O[C@H](CO[C@H]6O[C@H](COC7O[C@H](CO)[C@@H](O)[C@H](O)[C@H]7O)[C@@H](O)[C@H](O)[C@H]6O)[C@@H](O)[C@H](O)[C@H]5O)C4(C)C)[C@]3(C)[C@H](O)C[C@]12C` (stereo partly drawn) [Compound 33], the EC50 is reported as over 30 µM.
